Measured values taken from ChEMBL document CHEMBL5321280, “Novel 4-Arylindolines Containing a Pyrido[3,2-d]pyrimidine Moiety as the Programmed Cell Death-1/Programmed Cell Death-Ligand 1 Interaction Inhibitors for Tumor Immunotherapy” (J Med Chem, 2023).
The source made the active and inactive calls. The calls are words filed in the database; no cut-off is given here.

What was measured:
[1] = molecular target: Programmed cell death protein 1/Programmed cell death 1 ligand 1 (Homo sapiens, UniProt Q15116+Q9NZQ7); assay: Inhibition of PD-1/PD-L1 (unknown origin) protein-protein interaction incubated for 105 mins by HTRF assay; type: protein-complex assay
[2] = Metabolic stability in human liver microsomes assessed as half life; type: ADME, Microsome
[3] = test system: T-cell; assay: Immunomodulatory activity in concanavalin A stimulated BALB/c mouse T-lymphocyte co-cultured with mouse CT26 cells assessed as increase in T cell proliferation at 5 to 80 nM incubated for 48 hrs by flow cytometry; type: functional, cell-based; conditions: dose 5-80 nM
[4] = test system: T-cell; assay: Immunomodulatory activity in concanavalin A stimulated BALB/c mouse T-lymphocyte co-cultured with mouse CT26 cells assessed as T cell proliferation at 20 nM incubated for 48 hrs by flow cytometry (reference value: 64.08 +/- 0.91%); type: functional
[5] = test system: T-cell; assay: Immunomodulatory activity in concanavalin A stimulated BALB/c mouse T-lymphocyte co-cultured with mouse CT26 cells overexpressing PD-L1 assessed as increase in T cell proliferation at 5 to 80 nM incubated for 48 hrs by flow cytometry; type: functional, cell-based; conditions: dose 5-80 nM
[6] = test system: T-cell; assay: Immunomodulatory activity in concanavalin A stimulated BALB/c mouse T-lymphocyte co-cultured with mouse CT26 cells overexpressing PD-L1 assessed as T cell proliferation at 20 nM incubated for 48 hrs by flow cytometry (reference value: 58.47 +/- 2.07%); type: functional
[7] = test system: Lewis lung carcinoma; assay: Antitumor immunity against mouse Lewis lung carcinoma cell line overexpressing PD-L1 co-cultured with concanavalin A stimulated BALB/c mouse spleen T cell assessed as increase in T cell infiltration into tumor matrix at 80 nM incubated for 48 to 72 hrs by fluorescence microscopy; type: functional, cell-based; conditions: time 48-72 hrs
[8] = Metabolic stability in rat liver microsomes assessed as intrinsic clearance; type: ADME, Microsome; conditions: read-out: CLH
[9] = (§1) Antitumor activity against mouse Lewis lung carcinoma cell line overexpressing PD-L1 implanted in C57 mouse model assessed as increase in infiltration of CD3 positive CD8 positive T cells in tumor by measuring necrotic cells at 20 mg/kg,ip administrated once every three days for 19 days by flow cytometry analysis (reference value: 5.17%); type: functional; conditions: time 19 day
[10] = as §1, with “CD4” for “CD8”, “early apoptotic” for “necrotic”, “2.24%)” for “5.17%)”; type: functional; conditions: time 19 day
[11] = Toxicity in C57 mouse implanted with mouse Lewis lung carcinoma cell line overexpressing PD-L1 assessed as effect on spleen viscera index at 20 mg/kg,ip administrated once every three days for 19 days; type: organism-based; conditions: in vivo, 456 h, time 19 day
[12] = Antitumor activity against mouse Lewis lung carcinoma cell line overexpressing PD-L1 implanted in C57 mouse model assessed as tumor growth inhibition at 20 mg/kg,ip administrated once every three days for 19 days; type: functional; conditions: 456 h, time 19 day, read-out: TGI
[13] = test system: T-cell; assay: Immunomodulatory activity in concanavalin A stimulated BALB/c mouse T-lymphocyte co-cultured with mouse CT26 cells overexpressing PD-L1 assessed as increase in proportion of CD3 positive CD69 positive T cells at 80 nM incubated for 48 hrs by flow cytometry (reference value: 41.22%); type: functional
[14] = test system: Lewis lung carcinoma; assay: Antitumor immunity against mouse Lewis lung carcinoma cell line overexpressing PD-L1 co-cultured with concanavalin A stimulated BALB/c mouse spleen T cell assessed as increase in T cell infiltration into tumor matrix at 20 nM incubated for 48 to 72 hrs by fluorescence microscopy; type: functional, cell-based; conditions: time 48-72 hrs
[15] = as §1, with “late apoptotic” for “necrotic”, “9%)” for “5.17%)”; type: functional; conditions: time 19 day
[16] = Antitumor activity against mouse Lewis lung carcinoma cell line overexpressing PD-L1 implanted in C57 mouse model assessed as increase in CD8 positive GzmB positive T cells in tumor at 20 mg/kg,ip administrated once every three days for 19 days by flow cytometry analysis (reference value: 9.11%); type: functional; conditions: time 19 day
[17] = Toxicity in C57 mouse implanted with mouse Lewis lung carcinoma cell line overexpressing PD-L1 assessed as effect on lung viscera index at 20 mg/kg,ip administrated once every three days for 19 days; type: organism-based; conditions: in vivo, 456 h, time 19 day
[18] = Toxicity in C57 mouse implanted with mouse Lewis lung carcinoma cell line overexpressing PD-L1 assessed as effect on kidney viscera index at 20 mg/kg,ip administrated once every three days for 19 days; type: organism-based; conditions: in vivo, 456 h, time 19 day
[19] = as §1, with “CD4” for “CD8”, “late apoptotic” for “necrotic”, “12.07%)” for “5.17%)”; type: functional; conditions: time 19 day
[20] = test system: CT26; assay: Cytotoxicity against mouse CT26 cells assessed as cell growth inhibition at 0.25 to 4096 nM incubated for 48 hrs by MTT assay; type: functional, cell-based; conditions: dose 0.25-4096 nM
[21] = test system: Lewis lung carcinoma; assay: Cytotoxicity against mouse Lewis lung carcinoma cell line assessed as cell growth inhibition at 0.25 to 4096 nM incubated for 48 hrs by MTT assay; type: functional, cell-based; conditions: dose 0.25-4096 nM
[22] = as §1, with “early apoptotic” for “necrotic”, “1.32%)” for “5.17%)”; type: functional; conditions: time 19 day
[23] = Toxicity in C57 mouse implanted with mouse Lewis lung carcinoma cell line overexpressing PD-L1 assessed as reduction in body weight at 20 mg/kg,ip administrated once every three days for 19 days; type: organism-based; conditions: in vivo, 456 h, time 19 day
[24] = test system: T-cell; assay: Immunomodulatory activity in concanavalin A stimulated BALB/c mouse T-lymphocyte co-cultured with mouse CT26 cells overexpressing PD-L1 assessed as increase in proportion of CD3 positive CD69 positive T cells at 20 nM incubated for 48 hrs by flow cytometry (reference value: 39.97%); type: functional
[25] = test system: Lewis lung carcinoma; assay: Cytotoxicity against mouse Lewis lung carcinoma cell line overexpressing PD-L1 assessed as cell growth inhibition at 0.25 to 4096 nM incubated for 48 hrs by MTT assay; type: functional, cell-based; conditions: dose 0.25-4096 nM
[26] = test system: T-cell; assay: Immunomodulatory activity in concanavalin A stimulated BALB/c mouse T-lymphocyte co-cultured with mouse CT26 cells overexpressing PD-L1 assessed as increase in proportion of CD3 positive CD8 positive T cells at 20 nM incubated for 48 hrs by flow cytometry (reference value: 15.01%); type: functional
[27] = as §1, with “CD4” for “CD8”, “1.72%)” for “5.17%)”; type: functional; conditions: time 19 day
[28] = as §1, with “CD4” for “CD8”, “viable” for “necrotic”, “83.97%)” for “5.17%)”; type: functional; conditions: time 19 day
[29] = Toxicity in C57 mouse implanted with mouse Lewis lung carcinoma cell line overexpressing PD-L1 assessed as effect on heart viscera index at 20 mg/kg,ip administrated once every three days for 19 days; type: organism-based; conditions: in vivo, 456 h, time 19 day
[30] = Metabolic stability in human liver microsomes assessed as intrinsic clearance; type: ADME, Microsome; conditions: read-out: CLH
[31] = Metabolic stability in rat liver microsomes assessed as half life; type: ADME, Microsome
[32] = as §1, with “viable” for “necrotic”, “84.51%)” for “5.17%)”; type: functional; conditions: time 19 day
[33] = test system: T-cell; assay: Immunomodulatory activity in concanavalin A stimulated BALB/c mouse T-lymphocyte co-cultured with mouse CT26 cells overexpressing PD-L1 assessed as increase in proportion of CD3 positive CD8 positive T cells at 80 nM incubated for 48 hrs by flow cytometry (reference value: 14.38%); type: functional
[34] = Antitumor activity against mouse Lewis lung carcinoma cell line overexpressing PD-L1 implanted in C57 mouse model assessed as increase in CD8 positive IFN-gamma positive T cells in tumor at 20 mg/kg,ip administrated once every three days for 19 days by flow cytometry analysis (Rvb =20.66%); type: functional; conditions: time 19 day
[35] = test system: CT26; assay: Cytotoxicity against mouse CT26 cells overexpressing PD-L1 assessed as cell growth inhibition at 0.25 to 4096 nM incubated for 48 hrs by MTT assay; type: functional, cell-based; conditions: dose 0.25-4096 nM
[36] = Toxicity in C57 mouse implanted with mouse Lewis lung carcinoma cell line overexpressing PD-L1 assessed as effect on liver viscera index at 20 mg/kg,ip administrated once every three days for 19 days; type: organism-based; conditions: in vivo, 456 h, time 19 day

Programmed cell death protein 1/Programmed cell death 1 ligand 1, sequence (Q15116 whole entry): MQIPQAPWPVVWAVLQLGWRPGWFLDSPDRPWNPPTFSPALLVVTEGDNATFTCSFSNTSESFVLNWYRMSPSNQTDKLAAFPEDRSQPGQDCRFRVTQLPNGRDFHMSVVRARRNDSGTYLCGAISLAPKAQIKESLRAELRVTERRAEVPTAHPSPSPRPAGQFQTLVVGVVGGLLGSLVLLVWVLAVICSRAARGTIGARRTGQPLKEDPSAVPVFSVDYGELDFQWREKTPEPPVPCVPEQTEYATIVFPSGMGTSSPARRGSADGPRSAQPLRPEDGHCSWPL
Programmed cell death protein 1/Programmed cell death 1 ligand 1, sequence (Q9NZQ7 whole entry): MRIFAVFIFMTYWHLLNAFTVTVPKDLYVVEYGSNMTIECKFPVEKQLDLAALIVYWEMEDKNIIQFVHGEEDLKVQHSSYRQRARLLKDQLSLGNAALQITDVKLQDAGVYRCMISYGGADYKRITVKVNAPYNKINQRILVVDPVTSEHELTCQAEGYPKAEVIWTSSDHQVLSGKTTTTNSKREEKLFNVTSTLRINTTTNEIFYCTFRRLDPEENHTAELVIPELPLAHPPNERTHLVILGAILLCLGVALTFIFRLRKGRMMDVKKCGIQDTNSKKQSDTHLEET

SMILES: OCCNCc1cnc2c(N3CCc4c(-c5ccccc5)cccc43)nccc2c1
- IC50 [1]: 31.7 nM

SMILES: O=C(O)[C@@H]1CCN(Cc2cnc3c(N4CCc5c(-c6ccccc6)cccc54)nccc3c2)C1
- IC50 [1]: 67.9 nM

SMILES: c1ccc(-c2cccc3c2CCN3c2ncnc3cc(CNC4CCOCC4)cnc23)cc1
- IC50 [1]: 21.2 nM
- half-life [2]: 1.51 h

SMILES: CC(=O)NCCNCc1ccc2c(N3CCc4c(-c5ccccc5)cccc43)ncnc2c1
- IC50 [1]: 126 nM

SMILES: O=C(O)[C@H]1CCCCN1Cc1cnc2c(N3CCc4c(-c5ccccc5)cccc43)ncnc2c1
- IC50 [1]: 62.1 nM

SMILES: OC[C@@H]1CCN(Cc2cnc3c(N4CCc5c(-c6ccccc6)cccc54)ncnc3c2)C1
- IC50 [1]: 16 nM

SMILES: CC(C)(CO)NCc1cnc2c(N3CCc4c(-c5ccccc5)cccc43)nccc2c1
- IC50 [1]: 44.4 nM

SMILES: O=C(O)[C@H]1CCN(Cc2cnc3c(N4CCc5c(-c6ccccc6)cccc54)nccc3c2)C1
- IC50 [1]: 80.5 nM

SMILES: O=C(O)[C@@H]1CCCN1Cc1cnc2c(N3CCc4c(-c5ccc6c(c5)OCCO6)cccc43)ncnc2c1
- IC50 [1]: 15.8 nM

SMILES: O=C(O)[C@@H]1CCCCN1Cc1cnc2c(N3CCc4c(-c5ccccc5)cccc43)ncnc2c1
- IC50 [1]: 26.6 nM

SMILES: CC(C)(CO)NCc1cnc2c(N3CCc4c(-c5ccc6c(c5)OCCO6)cccc43)ncnc2c1
- IC50 [1]: 14.1 nM

SMILES: COCCNCc1cnc2c(N3CCc4c(-c5ccc6c(c5)OCCO6)cccc43)ncnc2c1
- IC50 [1]: 15.5 nM

SMILES: O[C@@H]1CCN(Cc2cnc3c(N4CCc5c(-c6ccccc6)cccc54)ncnc3c2)C1
- IC50 [1]: 13.2 nM

SMILES: OCCNCc1cnc2c(N3CCc4c(-c5ccccc5)cccc43)ncnc2c1
- Activity [3]: Active
- IC50 [1]: 6.8 nM
- Activity [4]: 59.22%
- half-life [2]: 3.47 h
- Activity [5]: Active
- Activity [6]: 60.06%

SMILES: O=C(c1ncc(CNC2CCOCC2)s1)N1CCc2c(-c3ccc4c(c3)OCCO4)cccc21
- Activity [3]: Active
- IC50 [1]: 18.9 nM
- Activity [4]: 59.1%
- half-life [2]: 0.373 h
- Activity [5]: Active
- Activity [6]: 60.49%

SMILES: CC(C)(CO)NCc1cnc2c(N3CCc4c(-c5ccccc5)cccc43)ncnc2c1
- Activity [7]: Active
- microsomal CLint [8]: 8.8 µL/min/mg
- Activity [9]: 2.4%
- Activity [10]: 3.13%
- Activity [11]: Non-Toxic
- inhibition in vivo at 20 mg/kg [12]: 61.9%
- Activity [13]: 61.21%
- Activity [14]: Active
- Activity [15]: 17.77%
- Activity [16]: 21.13%
- Activity [3]: Active
- Activity [17]: Toxic
- IC50 [1]: 6.3 nM
- Activity [4]: 54.61%
- Activity [18]: Non-Toxic
- Activity [19]: 22.29%
- Activity [20]: inactive
- Activity [21]: inactive
- Activity [22]: 4.77%
- Activity [23]: Toxic
- half-life [2]: 3.34 h
- Activity [24]: 56.41%
- Activity [25]: inactive
- Activity [26]: 23.79%
- Activity [27]: 0.78%
- Activity [28]: 73.8%
- Activity [29]: Non-Toxic
- Activity [5]: Active
- microsomal CLint [30]: 6.9 µL/min/mg
- half-life [31]: 2.64 h
- Activity [32]: 75.06%
- Activity [33]: 26.32%
- Activity [34]: 31.1%
- Activity [35]: inactive
- Activity [6]: 62.69%
- Activity [36]: Non-Toxic
